# Test results: patent EP0547508A1, “Use of xanthine derivatives for the stabilisation of the auto-regulation of cerebral blood flow” (priority 1991, dated 1993)
# Tested on: Ratten
# Test: Cerebral autoregulation in rats under adrenaline-induced acute hypertension, with or without carotid occlusion (ischaemia/reperfusion)
# Type: in vivo
# Text: Es werden 36 Ratten unterteilt in drei Gruppen operiert. Die erste Gruppe dient als Kontrolle, d.h. es wird eine akute Hypertonie erzeugt, ohne daß die Carotiden abgeklemmt werden. Die zweite Gruppe wird während der Ischämie und die dritte Gruppe während der Reperfusion mit Adrenalin stimuliert. In jeder Gruppe werden jeweils 6 Tiere mit der Verbindung 1 als Dauerinfusion behandelt.
# Bei einem mittleren arteriellen Druck von 170 mmHg wird in der Kontrollgruppe die cerebrale Autoregulation durchbrochen (entsprechend 3 µg/kg Adrenalin (Firma Sigma)). Die dreifache Dosis führt bei einem Blutdruck von 200 mmHg zum Tod der Tiere. Im Gegensatz dazu ist in der mit Verbindung 1 behandelten Gruppe die dreifache Konzentration und ein mittlerer Druck von 180 mmHg erforderlich um an die Grenze der Autoregulation zu kommen. Der Verschluß beider Carotiden führt bei den Tieren, die mit Verbindung 1 behandelt wurden, zu einer höheren Restdurchblutung (25 %) als bei den Kontrolltieren. Während der Reperfusion bleibt die Gehirndurchblutung in der Kontrollgruppe auf dem niedrigen Niveau von 23 %. Die Autoregulation wird bereits bei 150 mmHg durchbrochen (entsprechend 3 µg/kg/Adrenalin). […] Erst bei 180 mmHg kommt es zum Durchbruch der Autoregulation.
# Alle Kontrolltiere verstarben nach einer Dosis von 10 µg/kg Adrenalin. Die letale Dosis für mit Verbindung 1 behandelte Tiere liegt bei 30 µg/kg Adrenalin. Zusammenfassend läßt sich feststellen, daß die mit Verbindung 1 behandelten Tiere - im Vergleich mit den Kontrolltieren - höhere Blutdruckspitzen und Blutdruckabsenkungen tolerieren und deren Gehirndurchblutungsautoregulation erst bei der 3-fachen Adrenalinkonzentration durchbrochen wird.
compound,measurement,setting,value
"CCCn1cnc2c1c(=O)n(CCCCC(C)=O)c(=O)n2C [Verbindung 1, 1-(5-Oxohexyl)-3-methyl-7-n-propyl-xanthin]",mittlerer Druck erforderlich um an die Grenze der Autoregulation zu kommen,"acute hypertension by Adrenalin, carotids not clamped, Verbindung 1 as continuous infusion, control group 170 mmHg",180 mmHg
same,Adrenalin-Konzentration erforderlich um an die Grenze der Autoregulation zu kommen,"acute hypertension, carotids not clamped, relative to control group (3 µg/kg Adrenalin)",dreifache
same,Durchbruch der Autoregulation,"during reperfusion, Adrenalin stimulation, control group 150 mmHg",180 mmHg
same,Restdurchblutung,"occlusion of both carotids (ischaemia), higher than in control animals",25%
same,Gehirndurchblutung während der Reperfusion,"reperfusion after carotid occlusion, control group stays at 23 %",erreichen sofort wieder das präischämische Ausgangsniveau
same,Adrenalinkonzentration bei der die Gehirndurchblutungsautoregulation durchbrochen wird,"summary, fold compared with control animals",3
